Source: article PMC6100729, “Penicillium citrinum UFV1 β-glucosidases: purification, characterization, and application for biomass saccharification” (Biotechnology for Biofuels, 2018)
Like-named read-outs stand apart in the source and are kept apart here.

How the values were obtained:
Type in all cases: biochemical, Penicillium citrinum
[1] = system: T1, PcβGlu2; test: glucose release, glucose oxidase method at […] nm; conditions: 50 mM sodium acetate pH 5.0, 40 °C
T1 construct: 93 kDa SDS-PAGE, 89 kDa gel filtration (abstract 95 kDa), monomer; GH3 only tentative (MS on heterogeneous fraction)

[2] = system: T2, PcβGlu1; test: glucose release, glucose oxidase method at […] nm; conditions: 50 mM sodium acetate pH 5.0, 40 °C
T2 construct: native secreted enzyme purified from wheat-bran culture supernatant (ammonium sulfate, phenyl sepharose); 134 kDa SDS-PAGE, 258 kDa gel filtration (abstract 241 kDa), homodimer

[3] = system: T2, PcβGlu1; test: 4-methylumbelliferone fluorescence; conditions: 50 mM sodium acetate pH 5.0, 40 °C
Description: 4-methylumbelliferone fluorescence on PcβGlu1

[4] = system: T1, PcβGlu2; test: 4-methylumbelliferone fluorescence; conditions: 50 mM sodium acetate pH 5.0, 40 °C; substrate-inhibition model
Description: 4-methylumbelliferone fluorescence on PcβGlu2

[5] = biological target: T1, PcβGlu2; test: pNPβGlu hydrolysis, p-nitrophenol release at […] nm; conditions: substrate pNPβGlu, 50 mM sodium acetate pH 5.0, 40 °C
[6] = biological target: T2, PcβGlu1; test: pNPβGlu hydrolysis, p-nitrophenol release at […] nm; conditions: substrate pNPβGlu, 50 mM sodium acetate pH 5.0, 40 °C
[7] = system: T2, PcβGlu1; test: p-nitrophenol release at […] nm; conditions: 50 mM sodium acetate pH 5.0, 40 °C
[8] = system: T1, PcβGlu2; test: p-nitrophenol release at […] nm; conditions: 50 mM sodium acetate pH 5.0, 40 °C; substrate-inhibition model
[9] = mixed-type noncompetitive, free-enzyme constant, read-out: KIE

OC[C@H]1O[C@@H](O[C@H]2[C@H](O)[C@@H](O)[C@H](O[C@H]3[C@H](O)[C@@H](O)[C@H](O[C@H]4[C@H](O)[C@@H](O)[C@H](O[C@H]5[C@H](O)[C@@H](O)C(O)O[C@@H]5CO)O[C@@H]4CO)O[C@@H]3CO)O[C@@H]2CO)[C@H](O)[C@@H](O)[C@@H]1O (some centres unmarked) [Cellopentaose]
Km ([1]; substrate-inhibition model): 70 ± 10 µM | Km [2]: 250 ± 20 µM

OC[C@H]1O[C@@H](O[C@H]2[C@H](O)[C@@H](O)[C@H](O[C@H]3[C@H](O)[C@@H](O)[C@H](O[C@H]4[C@H](O)[C@@H](O)C(O)O[C@@H]4CO)O[C@@H]3CO)O[C@@H]2CO)[C@H](O)[C@@H](O)[C@@H]1O (some centres unmarked) [Cellotetraose]
Km ([1]; substrate-inhibition model): 280 ± 70 µM | Km [2]: 420 ± 50 µM

OC[C@H]1O[C@@H](OC[C@H]2OC(O)[C@H](O)[C@@H](O)[C@@H]2O)[C@H](O)[C@@H](O)[C@@H]1O (some centres unmarked) [Gentiobiose]
Km ([1]; Michaelis-Menten): 620 ± 70 µM | Km [2]: 380 ± 40 µM

OC[C@H]1O[C@@H](O[C@H]2[C@H](O)[C@@H](CO)OC(O)[C@@H]2O)[C@H](O)[C@@H](O)[C@@H]1O (some centres unmarked) [Laminaribiose]
Km ([1]; substrate-inhibition model): 420 ± 30 µM | Km [2]: 330 ± 40 µM

Cc1cc(=O)oc2cc(O[C@@H]3O[C@H](CO)[C@@H](O)[C@H](O)[C@H]3O)ccc12 [MUβGlu]
Km [3]: 240 ± 10 µM | Km [4]: 14 ± 2 µM

CCCCCCCCO[C@@H]1O[C@H](CO)[C@@H](O)[C@H](O)[C@H]1O [Octyl-β-glucopyranoside]
Km ([1]; substrate-inhibition model): 190 ± 30 µM | Km [2]: 540 ± 30 µM

OC[C@H]1O[C@@H](O[C@H]2[C@H](O)[C@@H](O)C(O)O[C@@H]2CO)[C@H](O)[C@@H](O)[C@@H]1O (some centres unmarked) [cellobiose]
Ki [5, 9]: 3740 ± 70 µM | Km ([1]; Michaelis-Menten): 640 ± 60 µM | Km [2]: 1700 ± 100 µM | Ki [6, 9]: 10700 ± 100 µM

OC[C@H]1OC(O)[C@H](O)[C@@H](O)[C@@H]1O (some centres unmarked) [glucose]
Ki ([5]; competitive, read-out: Ki): 880 ± 80 µM | Ki ([6]; competitive, read-out: Ki): 1890 ± 80 µM

O=[N+]([O-])c1ccc(O[C@@H]2O[C@H](CO)[C@@H](O)[C@H](O)[C@H]2O)cc1 [pNPβGlu]
Km [7]: 280 ± 10 µM | Km [8]: 72 ± 7 µM
